{
  "source": "patent US20220089568A1",
  "about": "(Janssen Biotech, Inc., priority 2019, published 2022)",
  "key": {"human DHODH": {"biological_target": "T1, human DHODH (Homo sapiens, UniProt Q02127)", "T1 construct": "purchased Proteros PR-0044", "T1 sequence (Q02127 whole entry)": "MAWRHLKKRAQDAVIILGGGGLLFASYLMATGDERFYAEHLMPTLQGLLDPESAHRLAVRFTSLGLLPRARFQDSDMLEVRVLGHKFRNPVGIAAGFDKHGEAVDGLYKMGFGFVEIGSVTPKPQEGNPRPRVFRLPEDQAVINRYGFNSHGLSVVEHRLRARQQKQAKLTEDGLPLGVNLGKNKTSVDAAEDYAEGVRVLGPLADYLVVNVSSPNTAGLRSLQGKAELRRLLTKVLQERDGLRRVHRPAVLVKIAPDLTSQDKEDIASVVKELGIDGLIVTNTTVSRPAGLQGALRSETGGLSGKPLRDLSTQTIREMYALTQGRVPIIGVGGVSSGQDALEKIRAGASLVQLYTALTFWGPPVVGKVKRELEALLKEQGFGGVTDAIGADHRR", "assay": "DHODH Enzymatic Assay", "type": "biochemical", "conditions": "purified human DHODH; DCIP absorbance, end-point mode", "procedure": "To detect DHODH enzyme activities, dichloroindophenol (DCIP) is added as the final electron acceptor in the assay. DCIP can accept electrons from the reduced coenzyme Q generated in the assay, or from dihydroorotate (DHO) via FMN by binding presumably to the ubiquinone pocket. […] The assay buffer contained […], pH 7.5, 150 mM NaCl, 0.5 mM EDTA, and 0.1% Triton X-100 in MilliQ water. Substrate consisting of 20 mM DHO, 5 mM CoQ6, and 1 mM DCIP in assay buffer, initiates the reaction. […] Absorbance measurements were obtained using the BMG Phera Star plate-reading spectrophotomer. Purified human DHODH was purchased from Proteros (cat. No. PR-0044). Chemicals were purchased from Sigma-Aldrich, Teknova, and Avanti Polar Lipids. Liquid handling was performed using Labcyte Echo and Formulatrix Tempest."}, "MOLM-13 cells": {"tested_on": "MOLM-13 cells", "assay": "MOLM-13 Cellular Assay", "type": "cell-based", "conditions": "Homo sapiens, 72 hours exposure, cell viability by CellTiter-Glo", "procedure": "The day prior to assay set-up, cells were pelleted, resuspended in fresh media, counted, and cells were plated at 0.4×10^6 cell/mL in a T150 flask. […] Cells were exposed to different concentrations of test compounds at 37° C., 5% CO2 for 72 hours immediately after seeding."}},
  "data": [
    {"smiles": "CCn1c(CO)nn(-c2nc(O[C@@H](C)C(F)(F)F)c(C(=O)Nc3cnccc3Cl)cc2F)c1=O", "note": "[Example 27, (S)-N-(4-Chloropyridin-3-yl)-6-(4-ethyl-3-(hydroxymethyl)-5-oxo-4,5-dihydro-1H-1,2,4-triazol-1-yl)-5-fluoro-2-((1,1,1-trifluoropropan-2-yl)oxy)nicotinamide]", "values": [
      {"measurement": "EC50", "setting": "human DHODH", "result": 4.7, "unit": "nM"},
      {"measurement": "EC50", "setting": "MOLM-13 cells", "result": 7.7, "unit": "nM"}
    ]},
    {"smiles": "CCn1c(CO)nn(-c2nc(O[C@@H](C)C(F)(F)F)c(C(=O)Nc3c(F)cncc3Cl)cc2F)c1=O", "note": "[Example 28, (S)-N-(3-Chloro-5-fluoropyridin-4-yl)-6-(4-ethyl-3-(hydroxymethyl)-5-oxo-4,5-dihydro-1H-1,2,4-triazol-1-yl)-5-fluoro-2-((1,1,1-trifluoropropan-2-yl)oxy)nicotinamide]", "values": [
      {"measurement": "EC50", "setting": "human DHODH", "result": 2.3, "unit": "nM"},
      {"measurement": "EC50", "setting": "MOLM-13 cells", "result": 4.7, "unit": "nM"}
    ]},
    {"smiles": "CCn1c(CO)nn(-c2nc(O[C@@H](C)C(F)(F)F)c(C(=O)Nc3c(F)cncc3C#N)cc2F)c1=O", "note": "[Example 29, (S)-N-(3-Cyano-5-fluoropyridin-4-yl)-6-(4-ethyl-3-(hydroxymethyl)-5-oxo-4,5-dihydro-1H-1,2,4-triazol-1-yl)-5-fluoro-2-((1,1,1-trifluoropropan-2-yl)oxy)nicotinamide]", "values": [
      {"measurement": "EC50", "setting": "human DHODH", "result": 2.5, "unit": "nM"},
      {"measurement": "EC50", "setting": "MOLM-13 cells", "result": 4.4, "unit": "nM"}
    ]},
    {"smiles": "CCn1c(CO)nn(-c2nc(O[C@@H](C)C(F)(F)F)c(C(=O)Nc3c(F)cnc(OC)c3Cl)cc2F)c1=O", "note": "[Example 30, (S)-N-(3-Chloro-5-fluoro-2-methoxypyridin-4-yl)-6-(4-ethyl-3-(hydroxymethyl)-5-oxo-4,5-dihydro-1H-1,2,4-triazol-1-yl)-5-fluoro-2-((1,1,1-trifluoropropan-2-yl)oxy)nicotinamide]", "values": [
      {"measurement": "EC50", "setting": "human DHODH", "result": 1.2, "unit": "nM"},
      {"measurement": "EC50", "setting": "MOLM-13 cells", "result": 1.3, "unit": "nM"}
    ]},
    {"smiles": "CCn1c(CO)nn(-c2nc(O[C@@H](C)C(F)(F)F)c(C(=O)Nc3snc(C)c3Br)cc2F)c1=O", "note": "[Example 31, (S)-N-(4-Bromo-3-methylisothiazol-5-yl)-6-(4-ethyl-3-(hydroxymethyl)-5-oxo-4,5-dihydro-1H-1,2,4-triazol-1-yl)-5-fluoro-2-((1,1,1-trifluoropropan-2-yl)oxy)nicotinamide]", "values": [
      {"measurement": "EC50", "setting": "human DHODH", "result": 233, "unit": "nM"},
      {"measurement": "EC50", "setting": "MOLM-13 cells", "result": "> 100", "unit": "nM"}
    ]},
    {"smiles": "CCn1c(CO)nn(-c2nc(O[C@@H](C)C(F)(F)F)c(C(=O)Nc3ncsc3C)cc2F)c1=O", "note": "[Example 32, (S)-6-(4-Ethyl-3-(hydroxymethyl)-5-oxo-4,5-dihydro-1H-1,2,4-triazol-1-yl)-5-fluoro-N-(5-methylthiazol-4-yl)-2-((1,1,1-trifluoropropan-2-yl)oxy)nicotinamide]", "values": [
      {"measurement": "EC50", "setting": "human DHODH", "result": 13.6, "unit": "nM"},
      {"measurement": "EC50", "setting": "MOLM-13 cells", "result": 25.3, "unit": "nM"}
    ]},
    {"smiles": "CCn1c(CO)nn(-c2nc(O[C@@H](C)C(F)(F)F)c(C(=O)Nc3cc(Cl)cnc3OC)cc2F)c1=O", "note": "[Example 33, (S)-N-(5-Chloro-2-methoxypyridin-3-yl)-6-(4-ethyl-3-(hydroxymethyl)-5-oxo-4,5-dihydro-1H-1,2,4-triazol-1-yl)-5-fluoro-2-((1,1,1-trifluoropropan-2-yl)oxy)nicotinamide]", "values": [
      {"measurement": "EC50", "setting": "human DHODH", "result": 52.5, "unit": "nM"},
      {"measurement": "EC50", "setting": "MOLM-13 cells", "result": "> 100", "unit": "nM"}
    ]},
    {"smiles": "CCn1c(CO)nn(-c2nc(O[C@@H](C)C(F)(F)F)c(C(=O)Nc3nccnc3OC)cc2F)c1=O", "note": "[Example 34, (S)-6-(4-Ethyl-3-(hydroxymethyl)-5-oxo-4,5-dihydro-1H-1,2,4-triazol-1-yl)-5-fluoro-N-(3-methoxypyrazin-2-yl)-2-((1,1,1-trifluoropropan-2-yl)oxy)nicotinamide]", "values": [
      {"measurement": "EC50", "setting": "human DHODH", "result": 360, "unit": "nM"},
      {"measurement": "EC50", "setting": "MOLM-13 cells", "result": "> 100", "unit": "nM"}
    ]},
    {"smiles": "CCn1c(CO)nn(-c2nc(O[C@@H](C)C(F)(F)F)c(C(=O)Nc3c(C)nsc3C)cc2F)c1=O", "note": "[Example 35, (S)-N-(3,5-Dimethylisothiazol-4-yl)-6-(4-ethyl-3-(hydroxymethyl)-5-oxo-4,5-dihydro-1H-1,2,4-triazol-1-yl)-5-fluoro-2-((1,1,1-trifluoropropan-2-yl)oxy)nicotinamide]", "values": [
      {"measurement": "EC50", "setting": "human DHODH", "result": 1.9, "unit": "nM"},
      {"measurement": "EC50", "setting": "MOLM-13 cells", "result": 6.1, "unit": "nM"}
    ]},
    {"smiles": "CCn1c(CO)nn(-c2nc(O[C@@H](C)C(F)(F)F)c(C(=O)Nc3cc(C)cnc3F)cc2F)c1=O", "note": "[Example 36, (S)-6-(4-Ethyl-3-(hydroxymethyl)-5-oxo-4,5-dihydro-1H-1,2,4-triazol-1-yl)-5-fluoro-N-(2-fluoro-5-methylpyridin-3-yl)-2-((1,1,1-trifluoropropan-2-yl)oxy)nicotinamide]", "values": [
      {"measurement": "EC50", "setting": "human DHODH", "result": 58.6, "unit": "nM"},
      {"measurement": "EC50", "setting": "MOLM-13 cells", "result": "> 100", "unit": "nM"}
    ]},
    {"smiles": "CCn1c(CO)nn(-c2nc(O[C@@H](C)C(F)(F)F)c(C(=O)Nc3cc(C)ncc3F)cc2F)c1=O", "note": "[Example 37, (S)-6-(4-Ethyl-3-(hydroxymethyl)-5-oxo-4,5-dihydro-1H-1,2,4-triazol-1-yl)-5-fluoro-N-(5-fluoro-2-methylpyridin-4-yl)-2-((1,1,1-trifluoropropan-2-yl)oxy)nicotinamide]", "values": [
      {"measurement": "EC50", "setting": "human DHODH", "result": 200, "unit": "nM"},
      {"measurement": "EC50", "setting": "MOLM-13 cells", "result": "> 100", "unit": "nM"}
    ]},
    {"smiles": "CCn1c(CO)nn(-c2nc(O[C@@H](C)C(F)(F)F)c(C(=O)Nc3c(C)ncnc3Cl)cc2F)c1=O", "note": "[Example 38, (S)-N-(4-Chloro-6-methylpyrimidin-5-yl)-6-(4-ethyl-3-(hydroxymethyl)-5-oxo-4,5-dihydro-1H-1,2,4-triazol-1-yl)-5-fluoro-2-((1,1,1-trifluoropropan-2-yl)oxy)nicotinamide]", "values": [
      {"measurement": "EC50", "setting": "human DHODH", "result": 2390, "unit": "nM"},
      {"measurement": "EC50", "setting": "MOLM-13 cells", "result": "> 100", "unit": "nM"}
    ]},
    {"smiles": "CCn1c(CO)nn(-c2nc(O[C@@H](C)C(F)(F)F)c(C(=O)Nc3nc(C)ccc3F)cc2F)c1=O", "note": "[Example 39, (S)-6-(4-Ethyl-3-(hydroxymethyl)-5-oxo-4,5-dihydro-1H-1,2,4-triazol-1-yl)-5-fluoro-N-(3-fluoro-6-methylpyridin-2-yl)-2-((1,1,1-trifluoropropan-2-yl)oxy)nicotinamide]", "values": [
      {"measurement": "EC50", "setting": "human DHODH", "result": 14.1, "unit": "nM"},
      {"measurement": "EC50", "setting": "MOLM-13 cells", "result": 16.5, "unit": "nM"}
    ]},
    {"smiles": "CCn1c(CO)nn(-c2nc(O[C@@H](C)C(F)(F)F)c(C(=O)Nc3c(C)cnc(OC)c3Cl)cc2F)c1=O", "note": "[Example 40, (S)-N-(3-Chloro-2-methoxy-5-methylpyridin-4-yl)-6-(4-ethyl-3-(hydroxymethyl)-5-oxo-4,5-dihydro-1H-1,2,4-triazol-1-yl)-5-fluoro-2-((1,1,1-trifluoropropan-2-yl)oxy)nicotinamide]", "values": [
      {"measurement": "EC50", "setting": "human DHODH", "result": 0.31, "unit": "nM"},
      {"measurement": "EC50", "setting": "MOLM-13 cells", "result": 0.3, "unit": "nM"}
    ]},
    {"smiles": "CCn1c(CO)nn(-c2nc(O[C@@H](C)C(F)(F)F)c(C(=O)Nc3cc(C)cnc3OC)cc2F)c1=O", "note": "[Example 41, (S)-6-(4-Ethyl-3-(hydroxymethyl)-5-oxo-4,5-dihydro-1H-1,2,4-triazol-1-yl)-5-fluoro-N-(2-methoxy-5-methylpyridin-3-yl)-2-((1,1,1-trifluoropropan-2-yl)oxy)nicotinamide]", "values": [
      {"measurement": "EC50", "setting": "human DHODH", "result": 17.4, "unit": "nM"},
      {"measurement": "EC50", "setting": "MOLM-13 cells", "result": 52.4, "unit": "nM"}
    ]},
    {"smiles": "CCn1c(CO)nn(-c2nc(O[C@@H](C)C(F)(F)F)c(C(=O)Nc3c(C)ccnc3F)cc2F)c1=O", "note": "[Example 42, (S)-6-(4-Ethyl-3-(hydroxymethyl)-5-oxo-4,5-dihydro-1H-1,2,4-triazol-1-yl)-5-fluoro-N-(2-fluoro-4-methylpyridin-3-yl)-2-((1,1,1-trifluoropropan-2-yl)oxy)nicotinamide]", "values": [
      {"measurement": "EC50", "setting": "human DHODH", "result": 2.4, "unit": "nM"},
      {"measurement": "EC50", "setting": "MOLM-13 cells", "result": 4.3, "unit": "nM"}
    ]},
    {"smiles": "CCn1c(CO)nn(-c2nc(O[C@@H](C)C(F)(F)F)c(C(=O)Nc3ncnc(C)c3C)cc2F)c1=O", "note": "[Example 43, (S)-N-(5,6-Dimethylpyrimidin-4-yl)-6-(4-ethyl-3-(hydroxymethyl)-5-oxo-4,5-dihydro-1H-1,2,4-triazol-1-yl)-5-fluoro-2-((1,1,1-trifluoropropan-2-yl)oxy)nicotinamide]", "values": [
      {"measurement": "EC50", "setting": "human DHODH", "result": 815, "unit": "nM"},
      {"measurement": "EC50", "setting": "MOLM-13 cells", "result": "> 100", "unit": "nM"}
    ]}
  ]
}
